US4918064A, “Phenyl glycines for use in reducing neurotoxic injury” (G. D. Searle & Co., priority 1987, dated 1990)

Tests used:
KA (kainate) receptor = assay: [3H]kainate receptor binding assay, synaptic plasma membranes; settings: [3H]kainate 0.5 nM, 0-4° C., 60 min
Description: (§1) Synaptic plasma membranes (SPM) were prepared as previously described [Monahan, J. B. and Michel, J., "Identification and Characterization of an N-methyl-D-aspartate-specific L[^3 H]glutamate Recognition Site in Synaptic Plasma Membranes, J. Neurochem., 48, 1699-1708 (1987)]. The SPM were stored at a concentration of 10-15 mg/ml in 0.32M sucrose, 0.5 mM EDTA, 1 mM MgSO4, 5 mM Tris/SO4, pH 7.4, under liquid nitrogen. The identity and purity of the subcellular fractions were confirmed by both electron microscopy and marker enzymes. Protein concentrations were determined by using a modification of the method of Lowry [Ohnishi, S. T. and Barr, J. K., "A Simplified Method of Quantitating Proteins Using the Biuret and Phenol Reagents", Anal. Biochem., 86, 193-197 (1978)].
(§2) The SPM were treated identically for the [^3 H]AMPA (QUIS), [^3 H]kainate and sodium-dependent L-[^3 H]-glumatate binding assays. The SPM were thawed at room temperature, diluted twenty-fold with 50 mM Tris/acetate, pH 7.4, incubated at 37° C. for 30 minutes, and centrifuged at 100,000 g for 15 minutes. The dilution, incubation, and centrifugation was repeated a total of three times.
(§3) The basic procedure for the receptor subclass binding assays was similar. This general method involved adding the radioligand (12.5 nM L-[^3 H]glutamate; 0.5 nM [^3 H]kainate or 10 nM [^3 H]AMPA) to the appropriate concentration of the test compound and initiating the assay by the addition of ice cold synaptic plasma membranes (0.2-0.45 mg). The binding assays were performed in 1.5 mL centrifuge tubes with the total volume adjusted to 1.0 mL. .Additions of test compounds were made in 50 mM Tris/acetate, pH 7.4 and incubations were carried out at 0°-4° C. The incubation time for the NMDA and the AMPA binding assays was 10 minutes, for the kainate binding assay 60 minutes and for the sodium-dependent glutamate binding assay 15 minutes. The AMPA binding assay contained 100 mM KSCN and the sodium-dependent glutamate binding assay contained 150 mM sodium acetate in addition to the previously described reagents.
(§4) To terminate the incubation, the samples were centrifuged for 15 minutes at 12,000 g and 4° C. in a Beckman Microfuge 12. The supernatant was aspirated and the pelleted membranes dissolved in Beckman BTS-450 tissue solubilizer for a minimum of 6 hours at room temperature. Beckman MP scintillation cocktail containing 7 mL/1 acetic acid was then added and the samples counted on a Beckman LS 5800 or 3801 liquid scintillation counter with automatic corrections for quenching and counting efficiency.
(§5) Nonspecific binding was defined as the residual binding in the presence of either excess L-glutamate (0.1-0.4 mM), kainate (0.01 mM), or NMDA (0.5 mM), and was 15-25% of the total binding in the NMDA binding assay, 19-27% in the AMPA binding assay, 20-30% in the kainate binding assay and 10-15% in the sodium-dependent binding assay. Radioligand binding to the synaptic plasma membranes was analyzed using Scatchard and Hill transformations and the Ki values of the compounds determined using logit-log transformations. Calculations and regression analysis were performed using templates developed for Lotus 1, 2, 3 as previously described [Pullan, L. M. "Automated Radioligand Receptor Binding Analysis with Templates for Lotus", Computer Appln. Biosci., 3 131 (1987)]. Binding results are reported in Table II for example compounds of the invention. […]

NMDA receptor = assay: NMDA-specific L-[3H]glutamate receptor binding assay, synaptic plasma membranes; settings: L-[3H]glutamate 12.5 nM, Triton X-100 treated SPM, 0-4° C., 10 min
Description: as §1
Prior to use in the NMDA-specific L-[^3 H]glutamate binding assay the SPM were thawed, diluted twenty fold with 50 mM Tris/acetate, pH 7.4 containing 0.04% (v/v) Triton X-100, incubated for 30 minutes at 37° C. and centrifuged as described above. The Triton X-100 treated membranes were washed with 50 mM Tris/acetate, pH 7.4 and centrifuged at 100,000 g for 15 minutes a total of four times.
as §3, §4, §5

[1] = biological target: Quis (quisqualate) receptor; assay: [3H]AMPA (QUIS) receptor binding assay, synaptic plasma membranes; settings: [3H]AMPA 10 nM, 100 mM KSCN, 0-4° C., 10 min
Description: as §1, §2, §3, §4, §5

CD-1 mouse = assay: In Vivo 3-MPA-Induced Convulsions (tonic hindlimb extension)
Description: In the CD-1 mouse, i.p. injection of 3-MPA produces clonic seizures, tonic hindlimb extension and death. Seizures begin within 2-3 minutes after injection. The dose-response for induction of tonus by 3-MPA is unusual. The incidence of tonus increases rapidly from 35 to 50 mg/kg and remains constant at a less than maximal level over a broad dose range. 3-MPA doses from 50 to 150 mg/kg produce tonus in approximately 75% of the treated mice. The incidence of death over this dose range is variable and less than maximal.
In order to test for antagonism of 3-MPA-induced tonus, the lowest dose of 3-MPA that produced tonus consistently in 75% of the animals (50 mg/kg i.p.) was chosen. Test compounds were administered subcutaneously 30-40 minutes prior to i.p. administration of 3-MPA. Immediately after 3-MPA administration, each mouse was placed in a small cage made of steel rods. The mice were then observed for the presence or absence of tonic hindlimb extension. Reduction (from 75%) in the incidence of tonic hindlimb extension was considered protection from 3-MPA-induced convulsions. The dose of the test compound varied using groups of ten mice per dose until dose response curves are constructed, and ED50 's are calculated.

chick embryo retina = settings: agonist alone, pilot experiments, 30 min; cited from earlier work

SMILES | Receptor binding, KA (Ki) (KA (kainate) receptor) [µM] | Ki (NMDA receptor) [µM] | Ki [1] [µM] | mice with tonus produced by 3-MPA (CD-1 mouse; 3-MPA 50 to 150 mg/kg i.p.) | time after injection at which seizures begin (CD-1 mouse; 3-MPA i.p.) [min] | lowest dose of 3-MPA that produced tonus consistently in 75% of the animals (CD-1 mouse; i.p.) [mg/kg] | lowest concentration required to consistently obtain fully developed retinal lesions (chick embryo retina) [µM]
CCOP(=O)(O)Cc1ccc(C(N)C(=O)O)cc1 (stereo not shown) [VII, 4-(Ethylphosphonomethyl)phenylglycine] | > 300 | 70 | > 300 |  |  |  | 
NC(CCCCCP(=O)(O)O)C(=O)O (racemic) [D,L-AP7, D,L-2-amino-7-phosphonoheptanoic acid, reference compound] | > 300 | 5.4 | > 300 |  |  |  | 
N[C@H](CCCCCP(=O)(O)O)C(=O)O [D-AP7, reference compound] | > 300 | 4 | > 300 |  |  |  | 
O=C(O)CCS [Example 3-MPA] |  |  |  | approximately 75% | 2 to 3 | 50 | 
Cc1cc(C(N)C(=O)O)c(C)cc1CP(=O)(O)O.Cl (stereo not shown) [X, 2,5-dimethyl-4-(phosphonomethyl)phenylglycine hydrochloride] | > 300 | 21.3 | > 300 |  |  |  | 
C=C(C)[C@H]1CN[C@H](C(=O)O)[C@H]1CC(=O)O [KA, Kainate] |  |  |  |  |  |  | 25
